Reference: patent publication US9192675B2, “Dry powder inhaler and system for drug delivery” (MannKind Corporation, priority 2008, dated 2015)

Assay: Solubility of FDKP as a function of pH
Type: physicochemical
Text: These properties allow FDKP to crystallize under acidic conditions and the crystals self-assemble to form particles. The particles dissolve readily under physiological conditions where the pH is neutral. As noted, microparticles having a diameter of between about 0.5 and about 10 microns can reach the lungs, successfully passing most of the natural barriers. Particles in this size range can be readily prepared from FDKP.

With `O=C(O)/C=C/C(=O)NCCCCC1NC(=O)C(CCCCNC(=O)/C=C/C(=O)O)NC1=O` (centres unmarked) [FDKP, bis-3,6-(N-fumaryl-4-aminobutyl)-2,5-diketopiperazine] the solubility (in acid) was “low solubility in acid” and the solubility (neutral or basic pH) was “readily soluble at neutral or basic pH”.
